# ChEMBL document CHEMBL4396966, “Synthesis, biological evaluation and molecular docking of 4-Amino-2H-benzo[h]chromen-2-one (ABO) analogs containing the piperazine moiety” (Bioorg Med Chem, 2019)
# Calls of active or inactive are those of the source. The calls are words filed in the database; no cut-off is given here.
# Columns and labels:
# [1] = target: T1, Androgen receptor (Homo sapiens) (UniProt P10275); conditions: at 10 µM
# T1 sequence (whole entry): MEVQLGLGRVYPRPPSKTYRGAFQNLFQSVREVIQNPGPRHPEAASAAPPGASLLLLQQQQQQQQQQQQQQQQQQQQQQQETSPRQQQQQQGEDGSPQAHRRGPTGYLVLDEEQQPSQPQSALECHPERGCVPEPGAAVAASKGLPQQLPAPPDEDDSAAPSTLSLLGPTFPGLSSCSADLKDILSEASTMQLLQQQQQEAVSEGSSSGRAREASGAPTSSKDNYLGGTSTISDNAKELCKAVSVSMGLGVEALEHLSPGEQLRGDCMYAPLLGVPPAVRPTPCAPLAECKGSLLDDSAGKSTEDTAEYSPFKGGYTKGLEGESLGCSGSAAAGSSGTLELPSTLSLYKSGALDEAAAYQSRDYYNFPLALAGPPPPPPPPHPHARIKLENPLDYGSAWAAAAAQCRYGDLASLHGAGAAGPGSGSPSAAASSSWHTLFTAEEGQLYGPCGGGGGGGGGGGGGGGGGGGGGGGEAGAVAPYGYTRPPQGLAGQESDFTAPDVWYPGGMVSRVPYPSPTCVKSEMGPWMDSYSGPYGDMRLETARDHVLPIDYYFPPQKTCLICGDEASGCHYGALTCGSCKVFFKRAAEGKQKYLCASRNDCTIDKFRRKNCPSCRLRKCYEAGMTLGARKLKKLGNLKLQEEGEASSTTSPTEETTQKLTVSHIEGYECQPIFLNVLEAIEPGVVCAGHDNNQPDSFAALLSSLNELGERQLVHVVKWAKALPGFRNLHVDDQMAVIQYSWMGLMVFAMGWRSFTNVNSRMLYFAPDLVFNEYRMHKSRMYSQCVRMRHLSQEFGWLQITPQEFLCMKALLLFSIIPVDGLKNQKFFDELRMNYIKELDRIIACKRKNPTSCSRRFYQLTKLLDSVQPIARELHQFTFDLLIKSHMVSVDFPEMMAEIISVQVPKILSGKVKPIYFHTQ
# [2] = Antiproliferative activity against AR-rich human LNCaP-hr cells assessed as reduction in cell viability after 24 hrs by CCK-8 assay; assay type: functional
# [3] = test system: PC-3; experiment: Antiproliferative activity against AR-deficient human PC3 cells assessed as reduction in cell viability after 24 hrs by CCK-8 assay; assay type: functional, cell-based; conditions: PC-3, 24 h
# [4] = target: T2, Androgen receptor (Rattus norvegicus, UniProt P15207); experiment: Displacement of fluormone-AL Green from His-tagged/GST-fused recombinant rat androgen receptor LBD expressed in insect cells measured after 4 hrs by fluorescence polarization assay
# T2 sequence (P15207 whole entry): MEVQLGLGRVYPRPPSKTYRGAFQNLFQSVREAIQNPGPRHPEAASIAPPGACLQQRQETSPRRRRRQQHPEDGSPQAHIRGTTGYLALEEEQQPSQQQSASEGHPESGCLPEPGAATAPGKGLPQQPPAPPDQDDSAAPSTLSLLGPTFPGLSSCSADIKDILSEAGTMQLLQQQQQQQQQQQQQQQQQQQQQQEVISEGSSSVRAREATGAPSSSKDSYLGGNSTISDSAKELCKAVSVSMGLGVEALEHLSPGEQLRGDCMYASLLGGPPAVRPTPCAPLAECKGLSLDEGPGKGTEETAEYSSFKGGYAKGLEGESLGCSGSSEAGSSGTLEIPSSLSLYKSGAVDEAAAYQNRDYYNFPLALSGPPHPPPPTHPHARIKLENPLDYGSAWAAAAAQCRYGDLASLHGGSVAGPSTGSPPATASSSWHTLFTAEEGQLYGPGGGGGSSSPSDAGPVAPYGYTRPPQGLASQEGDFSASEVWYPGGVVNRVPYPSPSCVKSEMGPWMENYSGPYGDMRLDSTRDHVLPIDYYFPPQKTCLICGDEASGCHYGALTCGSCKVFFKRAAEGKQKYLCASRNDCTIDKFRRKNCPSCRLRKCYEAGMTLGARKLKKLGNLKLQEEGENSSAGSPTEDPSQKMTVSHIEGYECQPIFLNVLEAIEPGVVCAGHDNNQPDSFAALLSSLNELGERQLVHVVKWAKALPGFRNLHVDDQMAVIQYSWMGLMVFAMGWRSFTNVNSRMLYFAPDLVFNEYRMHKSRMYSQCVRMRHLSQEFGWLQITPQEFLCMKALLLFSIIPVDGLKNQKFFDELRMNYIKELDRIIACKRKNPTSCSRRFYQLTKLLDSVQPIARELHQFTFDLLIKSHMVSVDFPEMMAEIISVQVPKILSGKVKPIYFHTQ
SMILES,inhibition [1],IC50 [2] [µM],IC50 [3] [µM],IC50 [4] [µM]
O=c1cc(N2CCN(c3ccc(Br)cc3)CC2)c2ccc3ccccc3c2o1,25.1%,> 50,> 200,
O=c1cc(N2CCN(c3ccccc3F)CC2)c2ccc3ccccc3c2o1,52.3%,1.89,124,3.72
O=c1cc(N2CCN(c3cccc(Cl)c3)CC2)c2ccc3ccccc3c2o1,40.1%,2.9,165,
C[C@]1(O)CC[C@H]2[C@@H]3CCC4=CC(=O)CCC4=C3C=C[C@@]21C,inactive,,,
O=c1cc(N2CCN(c3ccc(F)cc3F)CC2)c2ccc3ccccc3c2o1,45.1%,> 50,122,
O=c1cc(N2CCN(c3ccc(F)cc3)CC2)c2ccc3ccccc3c2o1,43.5%,19.3,> 200,
O=c1cc(N2CCN(Cc3ccccc3)CC2)c2ccc3ccccc3c2o1,72.1%,0.52,> 200,0.55
O=c1cc(N2CCN(c3ccccc3)CC2)c2ccc3ccccc3c2o1,51.2%,5.05,> 200,3.94
COc1ccc(N2CCN(c3cc(=O)oc4c3ccc3ccccc34)CC2)cc1,59.1%,5.6,117,1.56
O=c1cc(N2CCN(c3ccc(Cl)cc3)CC2)c2ccc3ccccc3c2o1,53.7%,1.3,> 200,2.56
Cc1ccc(Cl)cc1N1CCN(c2cc(=O)oc3c2ccc2ccccc23)CC1,48.3%,15.3,> 200,
O=c1cc(N2CCN(c3ccccc3Cl)CC2)c2ccc3ccccc3c2o1,51.2%,9.69,> 200,3.87
O=c1cc(N2CCN(c3ccc(C(F)(F)F)cc3)CC2)c2ccc3ccccc3c2o1,20.7%,12.3,> 200,
CC(C)(C)NC(=O)[C@H]1CC[C@H]2[C@@H]3CC[C@H]4NC(=O)C=C[C@]4(C)[C@H]3CC[C@]12C [FINASTERIDE],,14.5,,
Cc1cccc(N2CCN(c3cc(=O)oc4c3ccc3ccccc34)CC2)c1,45.5%,32.5,54.1,
O=c1cc(N2CCN(c3ccccc3C(F)(F)F)CC2)c2ccc3ccccc3c2o1,65.4%,1.14,108,1.04
N#Cc1ccc(N2CCN(c3cc(=O)oc4c3ccc3ccccc34)CC2)c(F)c1,30.2%,37.8,> 200,
O=c1cc(N2CCN(C(c3ccc(F)cc3)c3ccc(F)cc3)CC2)c2ccc3ccccc3c2o1,70.3%,1.02,> 200,0.85
O=c1cc(N2CCN(c3ccccn3)CC2)c2ccc3ccccc3c2o1,54.5%,1.92,150,2.21
COc1ccccc1N1CCN(c2cc(=O)oc3c2ccc2ccccc23)CC1,61.2%,1.7,> 200,1.26
Cc1ccc(N2CCN(c3cc(=O)oc4c3ccc3ccccc34)CC2)cc1,53.3%,7.7,136,3.02
Cc1ccccc1N1CCN(c2cc(=O)oc3c2ccc2ccccc23)CC1,53.1%,4.43,109,3.54
COc1cccc(N2CCN(c3cc(=O)oc4c3ccc3ccccc34)CC2)c1,41.2%,13.3,> 200,
CCOc1ccccc1N1CCN(c2cc(=O)oc3c2ccc2ccccc23)CC1,58.5%,1.43,> 200,2.08
